Experimental data published in patent US20240228458A1, “PYRIMIDINE DERIVATIVE HAVING PROTEIN KINASE INHIBITORY ACTIVITY, AND THERAPEUTIC PHARMACEUTICAL COMPOSITION COMPRISING SAME” (THERAPEX CO., LTD., priority 2021, published 2024).

Assays:
Type in all cases: cell-based
[1] = system: Ba/F3 cells expressing EGFR-wt; test: Growth inhibition (GI50) of Ba/F3 cells expressing EGFR-wt, Celltiter glo; settings: Mus musculus, BaF3, 72 h
Description: (§1) In this experimental example, a determination was made as to whether the compounds prepared in Examples 1-283 have the ability to inhibit the growth of Ba/F3 cells expressing EGFR-wt, del19/T790M/C797S (EGFR-DTC), L858R/T790M/C797S (EGFR-LTC), del19/T790M (EGFR-DT), and L858R/T790M (EGFR-LT) variants.
(§2) The parental Ba/F3 cell line is a population of cells that are not introduced with EGFR variants. Specifically, 100 μl of a cell line expressing each variant was plated in a 96-well plate at a density of 100,000 cells/ml. 10-point, 4-fold serial dilutions of each compound were prepared, starting at 2 mM. After 4 h, 0.5 μl of the compound (0.5% DMSO) was added, followed by incubation at 37° C. and 5% CO2 for 72 h. After incubation, the number of viable cells was measured using a Celltiter glo assay kit (Promega) and the GI50 of the compound was determined. The term “GI50” refers to the molar concentration (μM) of the compound required for 50% growth inhibition of cells.

parental Ba/F3 cell line = test: Growth inhibition (GI50) of the parental Ba/F3 cell line (not introduced with EGFR variants), Celltiter glo; settings: Mus musculus, BaF3, 72 h, parental Ba/F3 cells
Description: as §2

[2] = system: Ba/F3 cells expressing del19/T790M/C797S (EGFR-DTC); test: Growth inhibition (GI50) of Ba/F3 cells expressing del19/T790M/C797S (EGFR-DTC), Celltiter glo; settings: Mus musculus, BaF3, 72 h
Description: as §1, §2

[3] = system: Ba/F3 cells expressing L858R/T790M/C797S (EGFR-LTC); test: Growth inhibition (GI50) of Ba/F3 cells expressing L858R/T790M/C797S (EGFR-LTC), Celltiter glo; settings: Mus musculus, BaF3, 72 h
Description: as §1, §2

SMILES	GI50 [1] [nM]	GI50 (parental Ba/F3 cell line) [nM]	GI50 [2] [nM]	GI50 [3] [nM]
COc1nc(N2CCC(F)(F)CC2)ccc1Nc1ncc(Br)c(Nc2ccc(F)cc2NS(C)(=O)=O)n1 [Example 33, N-(2-((5-Bromo-2-((6-(4,4-difluoropiperidin-1-yl)-2-methoxypyridin-3-yl)amino)pyrimidin-4-yl)amino)-5-fluorophenyl)methanesulfonamide]	2000 to 10000	2000 to 10000	2000 to 10000	2000 to 10000
CN1CCN(C2CCN(c3nc(Cl)c(Nc4ncc(Br)c(Nc5ccc(F)cc5NS(C)(=O)=O)n4)cc3C(F)(F)F)CC2)CC1 [Example 34, N-(2-((5-bromo-2-((2-chloro-6-(4-(4-methylpiperazin-1-yl)piperidin-1-yl)-5-(trifluoromethyl)pyridin-3-yl)amino)pyrimidin-4-yl)amino)-5-fluorophenyl)methanesulfonamide]	2000 to 10000	2000 to 10000	500 to 2000	100 to 500
CN1CCN(C2CCN(c3ccc4cc(Nc5ncc(Br)c(Nc6ccc(F)cc6NS(C)(=O)=O)n5)ccc4n3)CC2)CC1 [Example 35, N-(2-((5-bromo-2-((2-(4-(4-methylpiperazin-1-yl)piperidin-1-yl)quinolin-6-yl)amino)pyrimidin-4-yl)amino)-5-fluorophenyl)methanesulfonamide]	100 to 500	100 to 500	25 to 100	25 to 100
COc1nc(N2CCN(C3CCN(C)CC3)CC2)ccc1Nc1ncc(Br)c(Nc2ccc(F)cc2NS(C)(=O)=O)n1 [Example 36, N-(2-((5-bromo-2-((2-methoxy-6-(4-(1-methylpiperidin-4-yl)piperazin-1-yl)pyridin-3-yl)amino)pyrimidin-4-yl)amino)-5-fluorophenyl)methanesulfonamide]	500 to 2000	2000 to 10000	100 to 500	100 to 500
COc1nc(N2CCN(C3CCN(C)CC3)CC2)c(C(F)(F)F)cc1Nc1ncc(Br)c(Nc2ccc(F)cc2NS(C)(=O)=O)n1 [Example 37]	> 10000	> 10000	> 10000	> 10000
COc1cc(N2CCC(N3CCC(N(C)C)C3)CC2)c(C)cc1Nc1ncc(Br)c(Nc2ccc(F)cc2NS(C)(=O)=O)n1 (centres unmarked) [Example 40, N-(2-((5-bromo-2-((4-(4-(3-(dimethylamino)pyrrolidin-1-yl)piperidin-1-yl)-2-methoxy-5-methylphenyl)amino)pyrimidin-4-yl)amino)-5-fluorophenyl)methanesulfonamide]	500 to 2000	2000 to 10000	25 to 100	100 to 500
COc1cc(N2CCC(Nc3ccnn3C)CC2)c(C)cc1Nc1ncc(Br)c(Nc2ccc(F)cc2NS(C)(=O)=O)n1 [Example 41, N-(2-((5-bromo-2-((2-methoxy-5-methyl-4-(4-((1-methyl-1H-pyrazol-5-yl)amino)piperidin-1-yl)phenyl)amino)pyrimidin-4-yl)amino)-5-fluorophenyl)methanesulfonamide]	500 to 2000	2000 to 10000	100 to 500	500 to 2000
COc1cc(N2CCC(N3CCN(C4CC4)CC3)CC2)c(C)cc1Nc1ncc(Br)c(Nc2ccc(F)cc2NS(C)(=O)=O)n1 [Example 42, N-(2-((5-bromo-2-((4-(4-(4-cyclopropylpiperazin-1-yl)piperidin-1-yl)-2-methoxy-5-methylphenyl)amino)pyrimidin-4-yl)amino)-5-fluorophenyl)methanesulfonamide]	500 to 2000	500 to 2000	25 to 100	100 to 500
COc1cc(N2CCC(N3CCN(C)CC3)CC2)c(C)cc1Nc1ncc(Cl)c(Nc2ccccc2CS(C)(=O)=O)n1 [Example 62]	100 to 500	500 to 2000	25 to 100	25 to 100
CN1CCN(C2CCN(c3ccc(Nc4ncc(Cl)c(Nc5ccccc5CS(C)(=O)=O)n4)cc3F)CC2)CC1 [Example 63]	100 to 500	25 to 100	25 to 100	25 to 100
COc1nc(N2CCC(N3CCN(C)CC3)CC2)ccc1Nc1ncc(Cl)c(Nc2ccccc2CS(C)(=O)=O)n1 [Example 64]	2000 to 10000	2000 to 10000	500 to 2000	500 to 2000
COc1cc(N2CCC(N3CCN(C)CC3)CC2)c(C)cc1Nc1ncc(Cl)c(Nc2cc(Cl)ccc2NC(C)=O)n1 [Example 65, N-(4-chloro-2-((5-chloro-2-((2-methoxy-5-methyl-4-(4-(4-methylpiperazin-1-yl)piperidin-1-yl)phenyl)amino)pyrimidin-4-yl)amino)phenyl)acetamide]	500 to 2000	500 to 2000	100 to 500	100 to 500
COc1nc(N2CCC(N3CCN(C)CC3)CC2)c(C)cc1Nc1ncc(Cl)c(Nc2cc(Cl)ccc2NC(C)=O)n1 [Example 66, N-(4-chloro-2-((5-chloro-2-((2-methoxy-5-methyl-6-(4-(4-methylpiperazin-1-yl)piperidin-1-yl)pyridin-3-yl)amino)pyrimidin-4-yl)amino)phenyl)acetamide]	500 to 2000	2000 to 10000	500 to 2000	100 to 500
COc1cc(N2CCC(N3CCN(C)CC3)CC2)c(C)cc1Nc1ncc(Cl)c(Nc2ccccc2NC(C)=O)n1 [Example 68, N-(2-((5-chloro-2-((2-methoxy-5-methyl-4-(4-(4-methylpiperazin-1-yl)piperidin-1-yl)phenyl)amino)pyrimidin-4-yl)amino)phenyl)acetamide]	2000 to 10000	2000 to 10000	500 to 2000	2000 to 10000
CC(=O)Nc1ccccc1Nc1nc(Nc2ccc(N3CCC(N4CCN(C)CC4)CC3)c(F)c2)ncc1Cl [Example 69, N-(2-((5-chloro-2-((3-fluoro-4-(4-(4-methylpiperazin-1-yl)piperidin-1-yl)phenyl)amino)pyrimidin-4-yl)amino)phenyl)acetamide]	25 to 100	1 to 25	1 to 25	1 to 25
COc1cc(N2CCC(N3CCN(C)CC3)CC2)c(C)cc1Nc1ncc(Cl)c(Nc2cc(Cl)c(Cl)cc2NC(C)=O)n1 [Example 71, N-(4,5-dichloro-2-((5-chloro-2-((2-methoxy-5-methyl-4-(4-(4-methylpiperazin-1-yl)piperidin-1-yl)phenyl)amino)pyrimidin-4-yl)amino)phenyl)acetamide]	100 to 500	500 to 2000	100 to 500	100 to 500
COc1nc(N2CCC(N3CCN(C)CC3)CC2)ccc1Nc1ncc(Cl)c(Nc2cc(Cl)c(Cl)cc2NC(C)=O)n1 [Example 72]	500 to 2000	2000 to 10000	500 to 2000	500 to 2000
CC(=O)Nc1cc(Cl)c(Cl)cc1Nc1nc(Nc2cnc(N3CCC(N4CCN(C)CC4)CC3)c(F)c2)ncc1Cl [Example 73, N-(4,5-dichloro-2-((5-chloro-2-((5-fluoro-6-(4-(4-methylpiperazin-1-yl)piperidin-1-yl)pyridin-3-yl)amino)pyrimidin-4-yl)amino)phenyl)acetamide]	500 to 2000	2000 to 10000	500 to 2000	500 to 2000
CC(=O)Nc1cc(Cl)c(Cl)cc1Nc1nc(Nc2ccc(N3CCOCC3)nc2)ncc1Cl [Example 74, N-(4,5-dichloro-2-((5-chloro-2-((6-morpholinopyridin-3-yl)amino)pyrimidin-4-yl)amino)phenyl)acetamide]	> 10000	> 10000	2000 to 10000	2000 to 10000
COc1cc(N2CCC(N3CCN(C)CC3)CC2)ccc1Nc1ncc(Cl)c(Nc2cc(Cl)c(Cl)cc2NC(C)=O)n1 [Example 75, N-(4,5-dichloro-2-((5-chloro-2-((2-methoxy-4-(4-(4-methylpiperazin-1-yl)piperidin-1-yl)phenyl)amino)pyrimidin-4-yl)amino)phenyl)acetamide]	100 to 500	100 to 500	100 to 500	100 to 500
CC(=O)Nc1cc(Cl)c(Cl)cc1Nc1nc(Nc2ccc(N3CCC(N4CCN(C)CC4)CC3)c(F)c2)ncc1Cl [Example 76, N-(4,5-dichloro-2-((5-chloro-2-((3-fluoro-4-(4-(4-methylpiperazin-1-yl)piperidin-1-yl)phenyl)amino)pyrimidin-4-yl)amino)phenyl)acetamide]	100 to 500	100 to 500	100 to 500	100 to 500
CC(=O)Nc1cc(Cl)c(Cl)cc1Nc1nc(Nc2ccc(N3CCC(N4CCN(C)CC4)CC3)cc2Cl)ncc1Cl [Example 77, N-(4,5-dichloro-2-((5-chloro-2-((2-chloro-4-(4-(4-methylpiperazin-1-yl)piperidin-1-yl)phenyl)amino)pyrimidin-4-yl)amino)phenyl)acetamide]	500 to 2000	500 to 2000	500 to 2000	500 to 2000
COc1cc(N2CCC(N3CCN(C)CC3)CC2)c(C)cc1Nc1ncc(Cl)c(N(C)c2cc(Cl)c(Cl)cc2N(C)C(C)=O)n1 [Example 78, N-(4,5-dichloro-2-((5-chloro-2-((2-methoxy-5-methyl-4-(4-(4-methylpiperazin-1-yl)piperidin-1-yl)phenyl)amino)pyrimidin-4-yl)(methyl)amino)phenyl)-N-methylacetamide]	2000 to 10000	2000 to 10000	2000 to 10000	2000 to 10000
